Measurements: patent US6693126B2, “Dihydroxyphenyl derivatives for hepatoprotection and treatment of liver diseases” (Choongwae Pharm. Co., Ltd., priority 2000, dated 2004)

Tests used:
[1] = test system: Liver Injuries caused by Carbon Tetrachloride in Mice; assay: Inhibitory effect against liver injuries caused by carbon tetrachloride in mice; format: in vivo, mice (ICR, male); settings: CCl4 i.p., serum 24 h
Source text: (§1) The carbon tetrachloride model(see, Philippe letteron et al., Biochemical Pharmacology, 39, 12, 2027-2034, 1990; Tips, 10, 1989; Kyoichi Kagawa et al., Japan J. Pharmacol., 42, 19-26, 1986; K. T. Liu and P. Lesca, Chem. Biol. Interactions, 41, 39-47, 1982; Richard O. et al., J. Biological Chemistry, 236, 2, 1961) is used most generally. This model has been established based on the internal phenomena that carbon tetrachloride is converted by cytochrome P-450 to a toxic free radical trichloromethyl(CCl3.), this radical is strongly bound to a thiol group of membrane protein on microsome of liver to form a lipid radical, which is then converted to a peroxy radical in the presence of oxygen to facilitate the peroxidation reaction of membrane lipid. That is, carbon tetrachloride suppresses protein biosynthesis in the liver, induces the increase of ALT and AST values in blood, and further causes histologically the centrilobular necrosis of the liver.
(§2) The degree of liver damage in the experimental animals was determined by measuring ALT and AST values in blood(see, Biol. Pharm. Bull., 20, 4, 381-385, 1997; Toxicology and Applied Pharmacology, 95, 1-11, 1988), and the hepatoprotective activity was calculated based on the following formula(see, Planta Medica, 55, 127-132, 1989). At this time, the hepatoprotective activity can also be calculated based on the same formula by replacing ALT value with AST value. [formula]
(§3) The hepatoprotective effect of the compound of the present invention was identified according to a known procedure(see, Philippe letteron et al., Biochemical Pharmacology, 39, 12, 2027-2034, 1990), and the protocol may be described in brief as follows.
(§4) Rats(SD, male, 180˜200 g) and mice(ICR, male, 27-35 g) used in the test were allowed in a condition of temperature 22±1° C. and relative humidity 60±5%. Feed and water were provided with no restriction while light and darkness were changed at an interval of 12 hours.
(§5) […] […] Each group included 8 test animals, and the test compound was orally administered once per animal. After 30 minutes(rat) or 1 hour(mouse) from the administration of the test compound, 10% carbon tetrachloride in corn oil solution was intraperitoneally injected in doses of 2 ml/kg in rats and 0.15 ml/kg in mice. As the control compounds, silymarin and DDB were selected.
(§6) The test animals were provided with no feed and sufficient water for 24 hours from the administration of carbon tetrachloride. […] This blood was centrifuged to obtain sera. ALT and AST values in the sera were measured using blood chemistry analyzer(Vitalab, Selectra II, Merck). The statistical significance for the test result of each group was examined based on Student's t-test, and the result was recognized as having a statistical significance when its P value is less than 5%.

[2] = test system: Fulminant Liver Injuries caused by D-galactosamine/lipopolysaccharide in Mice; assay: Inhibitory effect against fulminant liver injuries caused by D-galactosamine/lipopolysaccharide in mice (survival); format: in vivo, Mice (ICR, male); settings: D-galactosamine 800 mg/kg + lipopolysaccharide 10 μg/kg i.p., observed 24 hours
Source text: Further, the D-galactosamine/lipopolysaccharide model(see, Chris Galanos et al., Proc. Natl. Acad. Sci. USA, 76, 11, 5939-5943, 1979; Koji Hase et al., Biol. Pharm. Bull., 20, 4, 381-385, 1997; Junichi Nagakawa et al., The Journal of Pharmacology and Experimental Therapeutics, 264, 1, 1992; Nolan J. D., Hepatology, 1, 458-465, 1981; Wendel A., Methods Enzymol., 186, 675-680, 1990) which is also used in the present invention for the identification of hepatoprotective effect is based on the phenomena that liver injuries are caused by immune responses in mouse. It has been reported that such kind of liver injuries are caused not by direct tissue lesions due to the chemicals but by secretion of tumor necrosis factor(TNF)-α, reactive oxygen, etc.(see, Hishinuma I. et al., Hepatology, 12, 1187-1191, 1990, Hase K. et al., Phytother. Res., 10, 387-392, 1996). Here, D-galactosamine supresses protein biosynthesis and as well highly increases the sensitivity of the liver cells for lipopolysaccharide by reducing uridine nucleotide.
The hepatoprotective effect of the compound of the present invention was identified according to a known procedure(see, Koji Hase et al., Biol. Pharm. Bull., 20, 4, 381-385, 1997), and the protocol may be described in brief as follows.
Mice(ICR, male, 27˜35 g) as the test animal were allowed in a condition of temperature 22±1° C. and relative humidity 60±5%. Feed and water were provided with no restriction while light and darkness were changed at an interval of 12 hours.
The compound of the present invention was suspended in a solvent corn oil, and this suspension was administered in a dose of 10 ml/kg. Each group included 10 test animals, and the test compound was orally administered once per animal. After 1 hour from the administration of the test compound, D-galactosamine and lipopolysaccharide each of which dissolved in physiological saline were intraperitoneally injected at the same time in doses of 800 mg/kg and 10 μg/kg, respectively. As the control compounds, SY-640[N-methyl-N-(3,4-methylenedioxyphenacyl)acetamide; EP0350251], silymarin and DDB were selected.
The statistical significance for the test result of each group was examined based on Student's t-test, and the result was recognized as having a statistical significance when its P value is less than 5%.

[3] = test system: Liver Injuries caused by Carbon Tetrachloride in Rats; assay: Inhibitory effect against liver injuries caused by carbon tetrachloride in rats; format: in vivo, Rats (SD, male); settings: CCl4 i.p., serum 24 h
Source text: as §1, §2, §3, §4, §5, §6

Structure (SMILES) | Inhibitory Effect against Liver Injuries (%) ALT ([1]; dose 1.9 mg/kg p.o. once) | Inhibitory Effect against Liver Injuries (%) ALT ([1]; dose 5.6 mg/kg p.o. once) | Inhibitory Effect against Liver Injuries (%) ALT ([1]; dose 16.7 mg/kg p.o. once) | Inhibitory Effect against Liver Injuries (%) ALT ([1]; dose 50 mg/kg p.o. once) | Survival Rate (%) ([2]; dose 50 mg/kg oral once) | Inhibitory Effect against Liver Injuries (%) ALT ([3]; dose 1.9 mg/kg p.o. once) | Inhibitory Effect against Liver Injuries (%) ALT ([3]; dose 5.6 mg/kg p.o. once) | Inhibitory Effect against Liver Injuries (%) ALT ([3]; dose 16.7 mg/kg p.o. once) | Inhibitory Effect against Liver Injuries (%) ALT ([3]; dose 50 mg/kg p.o. once) | Inhibitory Effect against Liver Injuries(%) AST ([1]; dose 16.7 mg/kg p.o. once) | Inhibitory Effect against Liver Injuries(%) AST ([1]; dose 50 mg/kg p.o. once) | Survival Rate (%) ([2]; dose 5.6 mg/kg oral once)
O/N=C/c1ccc2c(c1)OCO2 [Compound 1] | 50% | 79% | 100% | 100% | 90% | 44% | 43% | 68% | 84% |  |  | 
COc1cc(/C=N/OCc2ccccn2)cc2c1OCO2 [Compound 13, 6-(2-((2-pyridyl)methoxy)-2-azavinyl)-4-methoxybenzo [d]1,3-dioxolane] | 35% | 43% | 69% | 100% | 90% | 53% | 49% | 59% | 67% |  |  | 
c1csc(-c2ccc3c(c2)OCO3)n1 [Compound 21, 2-(benzo[3,4-d]1,3-dioxolan-5-yl)-1,3-thiazole] |  |  | 99% | 100% |  |  |  | 63% | 67% | 97% | 100% | 100%
CC(=O)SCC(=O)c1ccc2c(c1)OCO2 [Compound 28, 1-(benzo[3,4-d]1,3-dioxolan-5-yl)-2-acetylthioethan-1-one] |  |  | 93% | 100% |  |  |  | 14% | 41% | 94% | 100% | 100%
COC(=O)c1cc(OC)c2c(c1-c1c(C(=O)OC)cc(OC)c3c1OCO3)OCO2 [DDB, reference compound] |  |  |  | 22% | 80% |  |  |  | 21% |  | 6% | 
